Results taken from article PMC12207802, “Discovery of coniferaldehyde as an inhibitor of caseinolytic protease to combat Staphylococcus aureus infections” (Molecular Medicine, 2025).
pIC50: −log10 of the molar value.

Target: T1, Caseinolytic protease P (ClpP) (Staphylococcus aureus, UniProt Q2G036)
T1 construct: clpP of S. aureus NCTC 8325-4 in pET-28a (+), Ni-purified
Assay: fluorogenic Suc-Leu-Tyr-AMC peptidase assay with purified ClpP; supported by fluorescence quenching (Ka), CETSA, CD and ClpXP GFP-SsrA degradation
Format: biochemical

T1 sequence (Q2G036 whole entry): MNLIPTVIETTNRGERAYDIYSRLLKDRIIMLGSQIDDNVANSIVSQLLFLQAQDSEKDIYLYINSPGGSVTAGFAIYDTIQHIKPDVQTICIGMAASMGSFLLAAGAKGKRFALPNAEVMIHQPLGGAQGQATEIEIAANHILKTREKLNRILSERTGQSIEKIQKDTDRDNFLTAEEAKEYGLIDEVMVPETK

COc1cc(/C=C/C=O)ccc1O [CA, 4-hydroxy-3-methoxycinnamaldehyde]
pIC50: 3.99
